One molecule from patent US5714148A, “Chemical compounds” (Zeneca Limited, priority 1992, dated 1998) can be followed below.

A short description of this assay: Unspecified tests of activity. The note with it: tests not specified.

For `O=C(O)CC[C@H](NC(=O)Oc1ccc(N(CCI)CCI)cc1)C(=O)O` [Example 33], the activity in tests entry is “good activity”.
